Laboratory results: ChEMBL document CHEMBL1909046, “DrugMatrix in vitro pharmacology data”

Tests used:
[1] = target: Epidermal growth factor receptor (Homo sapiens, UniProt P00533); test: DRUGMATRIX: Protein Tyrosine Kinase, EGF Receptor enzyme inhibition (substrate: Poly(Glu:Tyr)); assay type: cell-based, Insect cells; details: insect cells; Not Active = under 50% inhibition at 10 µM
Substance-K receptor = target: T1, Substance-K receptor (Homo sapiens, UniProt P21452); assay type: cell membranes, CHO, Membrane; details: cho; note: in other assays of this panel Not Active means under 50% inhibition at 10 µM
T1 sequence (P21452 whole entry): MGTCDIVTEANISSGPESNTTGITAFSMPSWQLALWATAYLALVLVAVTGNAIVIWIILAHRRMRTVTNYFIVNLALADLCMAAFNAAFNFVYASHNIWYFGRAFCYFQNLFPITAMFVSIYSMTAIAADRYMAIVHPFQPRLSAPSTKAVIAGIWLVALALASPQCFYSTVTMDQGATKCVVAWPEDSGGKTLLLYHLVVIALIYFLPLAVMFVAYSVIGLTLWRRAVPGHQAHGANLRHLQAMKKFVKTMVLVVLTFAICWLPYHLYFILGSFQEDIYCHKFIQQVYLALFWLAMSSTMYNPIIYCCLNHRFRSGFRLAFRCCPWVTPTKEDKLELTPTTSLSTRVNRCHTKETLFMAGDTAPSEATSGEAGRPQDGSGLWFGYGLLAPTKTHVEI

Cytochrome P450 2D6 = Cytochrome P450 2D6 (Homo sapiens, UniProt P10635); note: in other assays of this panel Not Active means under 50% inhibition at 10 µM
Cytochrome P450 2D6, sequence (P10635 whole entry): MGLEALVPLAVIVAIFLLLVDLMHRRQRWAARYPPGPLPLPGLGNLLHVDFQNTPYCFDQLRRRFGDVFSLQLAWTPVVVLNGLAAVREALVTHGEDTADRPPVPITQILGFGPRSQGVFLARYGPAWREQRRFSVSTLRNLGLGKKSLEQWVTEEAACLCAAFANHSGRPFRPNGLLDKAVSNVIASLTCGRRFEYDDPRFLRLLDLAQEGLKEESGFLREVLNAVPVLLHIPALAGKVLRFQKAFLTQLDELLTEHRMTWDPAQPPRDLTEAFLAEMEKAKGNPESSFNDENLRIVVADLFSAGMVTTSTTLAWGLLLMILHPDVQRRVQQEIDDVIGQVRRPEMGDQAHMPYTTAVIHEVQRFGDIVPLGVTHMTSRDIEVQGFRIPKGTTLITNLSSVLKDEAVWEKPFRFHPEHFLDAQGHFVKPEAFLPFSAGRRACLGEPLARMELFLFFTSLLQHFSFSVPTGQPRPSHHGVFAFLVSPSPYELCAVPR

[2] = target: T2, Amine oxidase [flavin-containing] A (Homo sapiens, UniProt P21397); test: DRUGMATRIX: Monoamine Oxidase MAO-A enzyme inhibition (substrate: Kynuramine); design: species or system BTI-TN-5B1-4; details: Not Active = under 50% inhibition at 10 µM
T2 sequence (P21397 whole entry): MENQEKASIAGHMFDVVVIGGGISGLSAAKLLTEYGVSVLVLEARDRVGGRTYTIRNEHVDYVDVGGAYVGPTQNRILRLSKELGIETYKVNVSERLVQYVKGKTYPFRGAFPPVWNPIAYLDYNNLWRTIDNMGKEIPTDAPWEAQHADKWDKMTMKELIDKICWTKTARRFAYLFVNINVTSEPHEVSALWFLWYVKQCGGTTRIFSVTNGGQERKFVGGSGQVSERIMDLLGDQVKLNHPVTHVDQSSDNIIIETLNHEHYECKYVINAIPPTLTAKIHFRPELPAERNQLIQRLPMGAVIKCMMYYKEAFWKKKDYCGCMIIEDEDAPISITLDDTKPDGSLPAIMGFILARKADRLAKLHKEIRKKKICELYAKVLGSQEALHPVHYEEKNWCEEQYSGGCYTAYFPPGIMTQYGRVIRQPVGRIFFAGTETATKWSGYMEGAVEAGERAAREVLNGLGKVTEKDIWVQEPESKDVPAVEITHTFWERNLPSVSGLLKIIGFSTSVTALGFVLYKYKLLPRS

[3] = DRUGMATRIX: Interleukin IL-1 radioligand binding (ligand: [125I] interleukin 1beta); assay type: cell membranes, Membrane; details: nih3t3; Not Active = under 50% inhibition at 10 µM
Androgen receptor [4] = target: T3, Androgen receptor (Rattus norvegicus, UniProt P15207); note: in other assays of this panel Not Active means under 50% inhibition at 10 µM
T3 sequence (P15207 whole entry): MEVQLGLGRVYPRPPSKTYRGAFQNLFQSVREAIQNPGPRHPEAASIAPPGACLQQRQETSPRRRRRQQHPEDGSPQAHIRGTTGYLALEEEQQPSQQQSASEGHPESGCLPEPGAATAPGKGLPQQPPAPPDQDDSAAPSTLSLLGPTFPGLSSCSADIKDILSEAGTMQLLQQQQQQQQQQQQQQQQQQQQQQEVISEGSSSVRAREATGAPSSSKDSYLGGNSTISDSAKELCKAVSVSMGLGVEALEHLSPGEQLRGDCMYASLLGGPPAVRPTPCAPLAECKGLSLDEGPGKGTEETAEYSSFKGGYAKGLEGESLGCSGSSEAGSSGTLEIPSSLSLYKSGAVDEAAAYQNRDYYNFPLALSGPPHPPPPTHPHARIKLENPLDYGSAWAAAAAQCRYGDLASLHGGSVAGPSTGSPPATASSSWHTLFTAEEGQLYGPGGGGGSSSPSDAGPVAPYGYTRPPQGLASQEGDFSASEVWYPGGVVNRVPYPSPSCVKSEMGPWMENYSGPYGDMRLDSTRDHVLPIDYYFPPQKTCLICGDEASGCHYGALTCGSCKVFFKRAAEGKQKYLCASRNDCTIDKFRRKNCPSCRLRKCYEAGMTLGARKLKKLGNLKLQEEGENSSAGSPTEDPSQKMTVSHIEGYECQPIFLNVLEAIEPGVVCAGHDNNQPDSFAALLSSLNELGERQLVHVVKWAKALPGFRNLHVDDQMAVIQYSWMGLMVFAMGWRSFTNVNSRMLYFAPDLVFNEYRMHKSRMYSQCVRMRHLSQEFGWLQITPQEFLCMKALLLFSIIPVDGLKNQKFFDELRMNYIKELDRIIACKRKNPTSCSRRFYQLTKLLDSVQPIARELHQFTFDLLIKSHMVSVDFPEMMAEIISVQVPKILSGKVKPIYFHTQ

Cytochrome P450 1A2 = target: T4, Cytochrome P450 1A2 (Homo sapiens, UniProt P05177); note: in other assays of this panel Not Active means under 50% inhibition at 10 µM
T4 sequence (P05177 whole entry): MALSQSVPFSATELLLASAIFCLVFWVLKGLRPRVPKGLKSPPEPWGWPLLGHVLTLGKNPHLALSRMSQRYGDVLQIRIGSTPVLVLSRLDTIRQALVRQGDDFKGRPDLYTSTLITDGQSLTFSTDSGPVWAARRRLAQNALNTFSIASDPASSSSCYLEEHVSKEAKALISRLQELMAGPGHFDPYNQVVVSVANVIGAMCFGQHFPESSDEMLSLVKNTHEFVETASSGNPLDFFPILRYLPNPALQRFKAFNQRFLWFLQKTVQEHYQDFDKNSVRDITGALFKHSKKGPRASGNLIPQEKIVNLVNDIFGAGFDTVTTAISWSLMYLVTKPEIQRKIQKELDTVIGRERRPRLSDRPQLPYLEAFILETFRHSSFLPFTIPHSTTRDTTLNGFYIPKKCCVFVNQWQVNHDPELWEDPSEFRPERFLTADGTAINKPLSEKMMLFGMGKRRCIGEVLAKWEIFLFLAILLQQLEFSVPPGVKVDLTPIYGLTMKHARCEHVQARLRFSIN

Androgen receptor [5] = target: T3, Androgen receptor; remark: listed apart in the source

Compound	IC50 [1]	IC50 (Substance-K receptor)	IC50 (Cytochrome P450 2D6)	IC50 ([2]; bti-tn-5b1-4)	IC50 [3]	Ki [3]	IC50 (Androgen receptor [4])	Ki (Androgen receptor [4])	IC50 ([2]; read-out: IC50)	IC50 (Cytochrome P450 1A2)	IC50 (Androgen receptor [5])	Ki [1]	Ki (Substance-K receptor)	Ki (Androgen receptor [5])	Ki ([2]; bti-tn-5b1-4)
CN(Cc1cc(Br)cc(Br)c1N)C1CCCCC1 [BROMHEXINE]	Not Active	Not Active	196 nM	Not Active	Not Active	Not Active	–	–	–	–	–	–	–	–	–
CC(C)(c1ccc(O)cc1)c1ccc(O)cc1 [BISPHENOL A]	Not Active	Not Active	–	Not Active	Not Active	Not Active	33800 nM	22500 nM	–	–	–	–	–	–	–
CC(=O)Nc1ccc2c(c1)Cc1ccccc1-2 [2-ACETYLAMINOFLUORENE]	Not Active	Not Active	–	–	Not Active	Not Active	–	–	59 nM	16 nM	–	–	–	–	–
Cc1cc(C(C)(C)C)c(O)c(C)c1CC1=NCCN1 [OXYMETAZOLINE]	Not Active	Not Active	200 nM	Not Active	Not Active	Not Active	–	–	–	–	Not Active	–	–	–	–
c1ccc(Cn2ccnc2)cc1	Not Active	Not Active	2000 nM	Not Active	Not Active	Not Active	–	–	–	200 nM	Not Active	–	–	–	–
CC(N)Cc1c[nH]c2ccc(OCc3cccs3)cc12 (stereo not given) [BW-723C86]	Not Active	Not Active	2770 nM	Not Active	Not Active	Not Active	–	–	–	874 nM	Not Active	–	–	–	–
CARBOXYMETHYLCELLULOSE	Not Active	Not Active	–	Not Active	Not Active	Not Active	–	–	–	–	Not Active	Not Active	Not Active	Not Active	Not Active
O=C(O)COC(=O)Cc1ccccc1Nc1c(Cl)cccc1Cl [ACECLOFENAC]	Not Active	Not Active	–	Not Active	Not Active	Not Active	–	–	–	–	Not Active	–	–	–	–
C[C@H](C(=O)O)c1ccc2oc(-c3ccc(F)cc3)nc2c1 [FLUNOXAPROFEN]	Not Active	Not Active	–	Not Active	Not Active	Not Active	–	–	–	–	Not Active	–	–	–	–
COc1cc(/C=C/C(=O)O)ccc1O [FERULATE]	Not Active	Not Active	–	Not Active	Not Active	Not Active	–	–	–	–	Not Active	–	–	–	–
